Laboratory results: patent US4775671A, “Imidazodiazepines” (Hoffmann-La Roche Inc., priority 1984, dated 1988)

How the values were obtained:
[1] = target: central benzodiazepine receptors; experiment: Inhibition of binding of tritiated diazepam at specific benzodiazepine receptors in the cerebral cortex; details: 50 percent inhibition of specific binding of tritiated diazepam
Description: The affinity of compounds of general formula I to the central benzodiazepine receptors was determined according to the method described in Life Science 20, 2101-2110 (1977) and Science 198, 849-851 ([…]). According to this method, the inhibition of the binding of tritiated diazepam at the specific benzodiazepine receptors in the cerebral cortex by the respective test substances is ascertained. The IC50 ("50% inhibiting concentration") is that concentration of the respective test substance which brings about a 50 percent inhibition of the specific binding of the tritiated diazepam at the specific benzodiazepine receptors in the cerebral cortex.

[2] = test system: spasmodic seizures caused by pentetrazole; experiment: Antipentetrazole test (anticonvulsant); format: in vivo; details: Rattus norvegicus, po, 0.5 h; female rats 60-80 g, p.o., 30 minutes before 120 mg/kg pentetrazole i.p.; protects 50% of animals
Description: The central properties of the compounds of formula I in accordance with the invention can be determined, for example, in the antipentetrazole test which is described hereinafter and which is generally recognized for recording anticonvulsant properties.
In this animal experiment the compound under investigation is administered orally to female rats weighing 60-80 g and 30 minutes later there are administered i.p. 120 mg/kg of pentetrazole, which causes emprosthotonus and tonic stretchings of the fore and/or hind limbs in unprotected experimental animals 1-4 minutes after the injection. Ten experimental animals are used per dosage of test substance. After counting the protected experimental animals the ED50 is determined according to the Probit method. The ED50 is that dosage which protects 50% of the experimental animals from the spasmodic seizures caused by pentetrazole.

[3] = Acute toxicity, single oral administration to mice; details: mouse, in vivo
Description: The results which have been obtained with representative members of the class of compound defined by general formula I in the experiments described previously are compiled in the following Table. Moreover, the Table contains data concerning the acute toxicity of some of these compounds (LD50 in mg/kg in the case of single oral administration to mice).

SMILES | IC50 [1] [nM] | ED50 [2] [mg/kg] | LD50 [3] [mg/kg]
Cc1noc(-c2ncn3c2[C@@H]2CCN2C(=O)c2c-3cccc2C(F)(F)F)n1 [Example 9, (S)-12,12a-dihydro-1-(3-methyl-1,2,4-oxadiazol-5-yl)-8-(trifluoromethyl)-9H,11H-azeto[2,1-c]imidazo[1,5-a][1,4]benzodiazepin-9-one] | 3.7 | 0.021 | –
O=C1c2c(Cl)cccc2-n2cnc(-c3noc(C(F)(F)F)n3)c2[C@@H]2CCCN12 | 9.6 | 1.2 | –
CON=Cc1ncn2c1[C@@H]1CCN1C(=O)c1c(Cl)cccc1-2 [Example 23, (S)-8-chloro-12,12a-dihydro-9-oxo-9H,11H-azeto[2,1-c]imidazo[1,5-a][1,4]benzodiazepine-1-carboxaldehyde O-methyl oxime] | 10 | 0.63 | –
Cc1noc(-c2ncn3c2[C@@H]2CCCN2C(=O)c2c(Br)cccc2-3)n1 [Example 5, (S)-8-bromo-11,12,13,13a-tetrahydro-1-(3-methyl-1,2,4-oxadiazol-5-yl)9H-imidazo[1,5-a]pyrrolo[2,1-c][1,4] benzodiazepin-9-one] | 2.1 | 0.068 | 2500 to 5000
Cc1noc(-c2ncn3c2C2CCN2C(=O)c2c(Cl)cccc2-3)n1 (racemic) | 10 | 0.32 | –
Cc1nnc(-c2ncn3c2[C@@H]2CCCN2C(=O)c2c(Cl)cccc2-3)o1 | 8.4 | 2.7 | 312 to 625
CN1Cc2c(-c3nc(C4CC4)no3)ncn2-c2cccc(Cl)c2C1=O | 4.5 | 0.034 | –
Cc1noc(-c2ncn3c2[C@@H]2CCCN2C(=O)c2c-3ccc(F)c2Cl)n1 [Example 4, (S)-8-chloro-7-fluoro-11,12,13,13a-tetrahydro-1-(3-methyl-1,2,4-oxadiazol-5-yl)-9H-imidazo[1,5-a]pyrrolo[2,1-c][1,4]benzodiazepin-9-one] | 5.2 | 0.082 | 1250 to 2500
COCc1noc(-c2ncn3c2[C@@H]2CCCN2C(=O)c2c(Cl)cccc2-3)n1 | 5.2 | 0.39 | –
Cc1noc(-c2ncn3c2CN(C)C(=O)c2c(Cl)cccc2-3)n1 | 3.9 | 0.43 | 1250 to 2500
Cc1noc(-c2ncn3c2[C@@H]2CCCN2C(=O)c2c(Cl)cccc2-3)n1 | 2.3 | 0.08 | 2000 to 4000
O=C1c2c(Cl)cccc2-n2cnc(-c3nc(C4CC4)no3)c2[C@@H]2CCCN12 | 2.2 | 0.2 | 1250 to 2500
CN1Cc2c(-c3nc(C4CC4)no3)ncn2-c2ccc(F)cc2C1=O | 5.6 | 0.23 | –
